# In US20260130921A1, “TREATMENT OF VIRAL INFECTIONS WITH COMBINATION OF PIKFYVE KINASE INHIBITORS AND TMPRSS-2 INHIBITORS” (AcuraStem Incorporated, priority 2020, published 2026):
# Target: PIKFYVE (Homo sapiens, UniProt Q9Y2I7)
# Assay: PIKFYVE assay (luciferase ADP-Glo kinase assay, Promega)
# Type: biochemical
# Conditions: Table 2
# Description: The activity of Compounds 1-20 was measured using a PIKFYVE assay (luciferase ADP-Glo kinase assay available from Promega Corp. of Madison, WI).
# The activity of Compounds 39-90 was also measured using a PIKFYVE assay (luciferase ADP-Glo kinase assay available from Promega Corp. of Madison, WI).
# Chain of PIKFYVE (Q9Y2I7 whole entry): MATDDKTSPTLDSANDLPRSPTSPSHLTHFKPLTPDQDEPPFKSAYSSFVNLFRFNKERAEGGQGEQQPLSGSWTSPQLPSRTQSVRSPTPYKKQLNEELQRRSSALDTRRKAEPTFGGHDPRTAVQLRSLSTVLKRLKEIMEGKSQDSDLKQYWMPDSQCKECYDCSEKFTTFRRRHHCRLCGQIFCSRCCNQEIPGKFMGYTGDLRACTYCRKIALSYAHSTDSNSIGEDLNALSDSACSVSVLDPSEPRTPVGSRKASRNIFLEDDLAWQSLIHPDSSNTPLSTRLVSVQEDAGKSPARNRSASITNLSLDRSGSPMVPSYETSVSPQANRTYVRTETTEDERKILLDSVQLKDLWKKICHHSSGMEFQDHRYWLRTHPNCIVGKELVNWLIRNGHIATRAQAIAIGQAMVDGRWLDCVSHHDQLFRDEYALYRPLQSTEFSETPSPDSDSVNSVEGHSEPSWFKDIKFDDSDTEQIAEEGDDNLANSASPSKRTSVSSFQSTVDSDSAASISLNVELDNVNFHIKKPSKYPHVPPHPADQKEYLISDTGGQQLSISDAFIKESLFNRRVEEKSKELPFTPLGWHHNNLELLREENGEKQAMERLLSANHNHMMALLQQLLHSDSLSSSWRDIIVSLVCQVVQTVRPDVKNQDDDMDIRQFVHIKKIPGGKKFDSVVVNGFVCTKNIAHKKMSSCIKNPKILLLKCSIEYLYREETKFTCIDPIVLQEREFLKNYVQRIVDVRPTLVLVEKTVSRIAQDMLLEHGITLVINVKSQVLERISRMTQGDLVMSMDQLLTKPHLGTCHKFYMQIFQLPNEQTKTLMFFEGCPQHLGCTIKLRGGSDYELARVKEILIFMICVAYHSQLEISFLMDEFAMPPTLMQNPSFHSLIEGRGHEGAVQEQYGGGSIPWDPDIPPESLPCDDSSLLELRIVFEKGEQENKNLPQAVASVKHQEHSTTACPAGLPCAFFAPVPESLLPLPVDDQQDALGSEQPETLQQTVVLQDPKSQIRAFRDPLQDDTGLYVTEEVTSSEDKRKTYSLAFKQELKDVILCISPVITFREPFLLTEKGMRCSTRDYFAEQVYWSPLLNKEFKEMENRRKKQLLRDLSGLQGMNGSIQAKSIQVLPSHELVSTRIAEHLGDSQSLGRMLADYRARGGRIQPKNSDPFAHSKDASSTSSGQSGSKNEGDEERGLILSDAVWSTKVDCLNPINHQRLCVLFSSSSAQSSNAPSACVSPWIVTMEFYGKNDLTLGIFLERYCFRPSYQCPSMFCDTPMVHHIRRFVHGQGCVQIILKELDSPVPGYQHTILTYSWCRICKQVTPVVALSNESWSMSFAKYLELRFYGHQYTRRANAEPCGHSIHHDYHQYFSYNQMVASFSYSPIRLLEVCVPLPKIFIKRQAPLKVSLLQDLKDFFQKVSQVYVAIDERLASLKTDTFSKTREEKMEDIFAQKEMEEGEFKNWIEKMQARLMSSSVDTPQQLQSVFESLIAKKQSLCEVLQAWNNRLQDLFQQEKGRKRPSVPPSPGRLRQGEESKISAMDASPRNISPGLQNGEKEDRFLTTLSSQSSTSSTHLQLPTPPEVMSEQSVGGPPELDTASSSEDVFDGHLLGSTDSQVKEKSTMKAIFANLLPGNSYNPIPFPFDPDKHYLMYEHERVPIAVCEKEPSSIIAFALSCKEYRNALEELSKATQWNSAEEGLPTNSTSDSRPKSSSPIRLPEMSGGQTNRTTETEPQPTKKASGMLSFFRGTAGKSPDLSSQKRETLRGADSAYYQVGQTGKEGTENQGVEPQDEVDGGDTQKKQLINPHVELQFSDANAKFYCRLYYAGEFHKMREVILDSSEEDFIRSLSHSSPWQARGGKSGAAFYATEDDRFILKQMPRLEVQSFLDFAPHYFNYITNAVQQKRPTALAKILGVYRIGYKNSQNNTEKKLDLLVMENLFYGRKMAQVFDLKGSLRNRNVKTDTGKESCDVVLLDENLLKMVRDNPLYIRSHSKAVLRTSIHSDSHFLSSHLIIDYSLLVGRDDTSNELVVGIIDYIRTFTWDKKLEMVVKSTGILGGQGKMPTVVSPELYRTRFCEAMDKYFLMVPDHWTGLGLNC
row,IC50 [nM],Structure (SMILES)
1,< 10000,c1ccc(-c2cn(-c3cc(N4CCOCC4)nc(OCCc4ccccn4)n3)cn2)cc1 [Compound 39]
2,< 500,Clc1ccc(-c2ccn(-c3cc(N4CCOCC4)nc(OCCc4ccccn4)n3)n2)cc1 [Compound 40]
3,< 10000,Fc1ccc(-c2cnn(-c3cc(N4CC[C@H]5OCC[C@H]54)nc(CCCc4ccccn4)n3)c2)cc1 [Compound 41]
4,< 500,Cc1cccc(-c2ccn(-c3cc(N4CCOCC4)nc(Cc4ccccc4)n3)n2)c1 [Compound 42]
5,< 500,c1cc(-c2cc(N3CCOCC3)nc(OCC3CCCO3)n2)n[nH]1 (stereo not shown) [Compound 45]
6,< 50,Cc1cccc(-c2ccn(-c3nc(NCCc4ccccn4)cc(N4CCOCC4)n3)n2)c1 [Compound 46]
7,< 50,Cc1cccc(-c2ccn(-c3nc(NCCc4cnccn4)cc(N4CCOCC4)n3)n2)c1 [Compound 47]
8,< 500,Cc1cccc(-c2ccn(-c3cc(N4CC[C@H]5OCC[C@H]54)nc(C(O)CO)n3)n2)c1 (stereo partly shown) [Compound 48]
9,< 50,COCC(O)c1nc(N2CCOCC2)cc(-n2ccc(-c3cccc(C)c3)n2)n1 (stereo not shown) [Compound 49]
10,< 10000,CC(C)(C)c1ccn(-c2cc(N3CCOCC3)nc(OCC(O)CO)n2)n1 (stereo not shown) [Compound 51]
11,< 500,OCC(O)COc1nc(N2CCOCC2)cc(-n2cc3ccccc3n2)n1 (stereo not shown) [Compound 52]
12,< 500,OCC(O)COc1nc(N2CCOCC2)cc(-n2ncc3ccccc32)n1 (stereo not shown) [Compound 53]
13,< 5,Cc1cccc(-c2ccn(-c3cc(N4CCOCC4)nc(OC[C@@H](O)c4ccccc4)n3)n2)c1 [Compound 57]
14,< 5,Cc1cccc(-c2ccn(-c3cc(N4CCOCC4)nc(OC[C@H](O)c4ccccc4)n3)n2)c1 [Compound 58]
15,< 50,COc1nc(N2CCOCC2)cc(-n2ccc(-c3cccc(C)c3)n2)n1 [Compound 59]
16,< 500,Cc1cccc(-c2ccn(-c3cc(N4CCOCC4)ncn3)n2)c1 [Compound 60]
17,< 50,Cc1cccc(-c2ccn(-c3cc(N4CCOCC4)nc(N4CCCC4=O)n3)n2)c1 [Compound 61]
18,< 500,Cc1cn(-c2cc(N3CCOCC3)nc(OCCc3cnn(C)c3)n2)nc1-c1ccccc1 [Compound 63]
19,< 50,COCc1nc(N2CCOCC2)cc(-n2ccc(-c3ccccc3)n2)n1 [Compound 69]
20,< 50,CCOC(=O)c1ccn(-c2cc(N3CCOCC3)nc(OCCc3ccn(C)n3)n2)n1 [Compound 70]
21,< 50,CN(C)Cc1cc(-c2ccccc2)nn1-c1cc(N2CCOCC2)nc(OCCc2cnn(C)c2)n1 [Compound 75]
22,< 50,COCc1cc(-c2ccccc2)n(-c2cc(N3CCOCC3)nc(OCCc3cnn(C)c3)n2)n1 [Compound 77]
23,< 50,COC(c1ccccc1)c1nc(N2CCOCC2)cc(-n2ccc(-c3ccccc3)n2)n1 (stereo not shown) [Compound 78]
24,< 50,Cc1cccc(-c2ccn(-c3cc(N4CCOCC4)nc(C(F)(F)F)n3)n2)c1 [Compound 82]
25,< 500,COc1nc(N2CCOCC2)c(C)c(-n2ccc(-c3cccc(C)c3)n2)n1 [Compound 83]
26,< 50,OCc1nc(N2CCOCC2)cc(-n2ccc(-c3ccccc3)n2)n1 [Compound 84]
27,< 500,CNc1nc(N2CCOCC2)cc(-n2nc(-c3ccccc3)cc2C)n1 [Compound 85]
28,< 500,COc1cc(N2CCOCC2)nc(-n2ccc(-c3cccc(C)c3)n2)n1 [Compound 87]
